Laboratory results published in patent US9371527B2, “Compositions and methods related to protein displacement therapy for myotonic distrophy” (University of Rochester, priority 2006, dated 2016).
“Also recorded” adds a separate entry of the source.

Key:
HSA^LR mice = experiment: Electromyography of myotonia after ClC-1 antisense morpholino, HSA^LR mice; format: in vivo; conditions: TA muscle
Procedure: FIGS. 21A, 21B, 21C, and 21D show the effects of antisense morpholino targeting the 3′ splice junction of ClC-1 exon 7a on splicing and myotonia in HSA^LR transgenic mice. Antisense morpholino targeting the 3′ splice junction of ClC-1 exon 7a was injected into tibialis anterior muscle of HSA^LR mice under general anesthesia (sequence 5′-[…]-3′ (SEQ ID NO: 4)). The contralateral muscle was injected with morpholino having the inverted sequence (5′-[…]-3′(SEQ ID NO: 5)). Uptake into muscle fibers was enhanced by in vivo electroporation. The determination of which side received the antisense morpholino was randomized. […] Electromyography was blinded to the randomization.
(§1) HSA^LR (Mankodi, A., et al. (2000) Science 289:1769-1773) or Mbnl1^ΔE3/ΔE3 mice (Kanadia, R. N., et al. (2003) Science 302:1978-1980) were anesthetized by intraperitoneal injection of 100 mg/kg ketamine, 10 mg/kg xylazine, and 3 mg/kg acepromazine. TA muscle was pretreated by intramuscular injection of bovine hyaluronidase (15 μl, 0.4 U/μl) (Sigma) (McMahon, J. M., et al. (2001) Gene Ther 8:1264-1270). Two hours later, 10 or 20 μg of morpholino in a total volume of 20 μl phosphate buffered saline (PBS) was injected using a 30-gauge needle. TA muscle was then electroporated using electrodes placed parallel to the long axis of the muscle. Electroporation parameters were 100 V/cm, 10 pulses at 1 Hz, and 20 ms duration per pulse. Antisense or control morpholino with inverted sequence was injected into TA muscles of opposite limbs. The determination of which TA received antisense morpholino was randomized, and investigators remained blinded to this assignment until EMG analyses were completed. Other analyses were performed without blinding. For experiments to determine the distribution of injected oligos, the antisense morpholino was labeled with carboxyfluorescein and cryosections of muscle (10 μM) were examined by fluorescence microscopy, with or without fixation in 4% paraformaldehyde. Some sections were co-labeled with TRITC-wheat germ agglutinin (Parsons, S. A., et al. (2003) Mol Cell Biol 23:4331-4343) (50 μg/ml in PBS; Sigma) and 4′,6-diamidino-2-phenylindole (DAPI) to highlight the surface membranes and nuclei of muscle fibers.
EMG was performed under general anesthesia as described previously (Kanadia, R. N., et al. (2003) Science 302:1978-1980). Images and video recordings of electromyographic myotonia in HSA^LR and Mbnl1^ΔE3/ΔE3 mice are shown in previous reports (Kanadia, R. N., et al. (2003) Science 302:1978-1980; Mankodi, A., et al. (2000) Science 289:1769-1773). […]

ClC-1 exon 7a [1] = experiment: RT-PCR of ClC-1 exon 7a splicing after ClC-1 antisense morpholino, HSA^LR mice; format: in vivo; conditions: TA muscle; for comparison of exon 7a skipping between antisense morpholinos: 3 weeks, 20 μg total
Procedure: FIGS. 21A, 21B, 21C, and 21D show the effects of antisense morpholino targeting the 3′ splice junction of ClC-1 exon 7a on splicing and myotonia in HSA^LR transgenic mice. Antisense morpholino targeting the 3′ splice junction of ClC-1 exon 7a was injected into tibialis anterior muscle of HSA^LR mice under general anesthesia (sequence 5′-[…]-3′ (SEQ ID NO: 4)). The contralateral muscle was injected with morpholino having the inverted sequence (5′-[…]-3′(SEQ ID NO: 5)). Uptake into muscle fibers was enhanced by in vivo electroporation. The determination of which side received the antisense morpholino was randomized. 21 days later, myotonia was evaluated by electromyography and muscle was harvested for RT-PCR analysis of ClC-1 alternative splicing. Electromyography was blinded to the randomization.
as §1
Mice were sacrificed three or eight weeks after morpholino injection. TA muscles were removed and frozen in liquid nitrogen. Total RNA was isolated with TriReagent (Molecular Research Center). cDNA synthesis was primed with oligo dT as described previously (Mankodi, A., et al. (2002) Mol Cell 10:35-44). Assays for alternative splicing of ClC-1 and Titin were described previously (Mankodi, A., et al. (2002) Mol Cell 10:35-44; Lin, X., et al. (2006) Hum Mol Genet 15:2087-2097). Primer sequences were
RT-PCR products (22 cycles) were separated on agarose gels, stained with SYBR green II, and scanned on a laser fluorimager (Molecular Dynamics). Band intensity was quantified using ImageQuant software. Total levels of ClC-1 mRNA were determined by quantitative real-time RT-PCR (Taqman, Applied Biosystems) relative to housekeeping gene RNA polymerase II transcription factor IIB.

ClC-1 exon 7a [2] = experiment: RT-PCR of ClC-1 exon 7a splicing after antisense morpholino, Mbnl1^ΔE3/ΔE3 mice; format: in vivo; conditions: TA muscle, 3 weeks, 20 μg
Procedure: FIGS. 27A, 27B, 27C, 27D, and 27E show antisense morpholino represses exon 7a inclusion, restores ClC-1 protein expression, and rescues myotonia in Mbnl1^ΔE3/ΔE3 mice. […] Bar=20 μM. […] Mean±s.d.; n=3 per group; **P<0.0001 antisense- versus invert-treated control; ANOVA.
To examine the effects of AON in this model, antisense morpholino or invert control was injected into TA muscle of Mbnl1^ΔE3/ΔE3 mice.
HSA^LR (Mankodi, A., et al. (2000) Science 289:1769-1773) or Mbnl1^ΔE3/ΔE3 mice (Kanadia, R. N., et al. (2003) Science 302:1978-1980) were anesthetized by intraperitoneal injection of 100 mg/kg ketamine, 10 mg/kg xylazine, and 3 mg/kg acepromazine. TA muscle was pretreated by intramuscular injection of bovine hyaluronidase (15 μl, 0.4 U/μl) (Sigma) (McMahon, J. M., et al. (2001) Gene Ther 8:1264-1270). Two hours later, 10 or 20 μg of morpholino in a total volume of 20 μl phosphate buffered saline (PBS) was injected using a 30-gauge needle. TA muscle was then electroporated using electrodes placed parallel to the long axis of the muscle. Electroporation parameters were 100 V/cm, 10 pulses at 1 Hz, and 20 ms duration per pulse. […] For experiments to determine the distribution of injected oligos, the antisense morpholino was labeled with carboxyfluorescein and cryosections of muscle (10 μM) were examined by fluorescence microscopy, with or without fixation in 4% paraformaldehyde. […]

[3] = system: nuclear foci containing CUG^exp RNA and MBNL1 protein; experiment: FISH and immunofluorescence of ribonuclear inclusions after ClC-1 antisense morpholino; format: in vivo, HSA^LR mice; conditions: TA muscle, 3 weeks after injection; listed as antisense morpholino

Row | Substance | myotonia (EMG) (HSA^LR mice; 3 weeks (21 days) after injection) | myotonia (EMG) (HSA^LR mice; 8 weeks after injection) | ClC-1 exon 7a inclusion (ClC-1 exon 7a [1]; 3 weeks (21 days) after single injection + electroporation) | myotonia (EMG) (HSA^LR mice; 3 weeks (21 days) after injection, listed as antisense morpholino) | myotonia (EMG) (HSA^LR mice; 8 weeks after injection, listed as antisense morpholino) | ClC-1 exon 7a inclusion (ClC-1 exon 7a [2]; listed as antisense morpholino) | ClC-1 exon 7a inclusion (ClC-1 exon 7a [2]; listed as antisense morpholino 1) | ClC-1 exon 7a inclusion (ClC-1 exon 7a [1]; 3 weeks (21 days) after single injection + electroporation, listed as antisense morpholino) | comparison of exon 7a skipping between antisense morpholinos (ClC-1 exon 7a [1]) | comparison of exon 7a skipping between antisense morpholinos (ClC-1 exon 7a [1]; listed as AON targeting the 3′ splice site) | ClC-1 exon 7a inclusion (ClC-1 exon 7a [1]; 8 weeks after injection, 20 μg) | ClC-1 exon 7a inclusion (ClC-1 exon 7a [1]; 8 weeks after injection, 20 μg, listed as antisense morpholino) | fraction of splice products encoding functional ClC-1 channels (band 1) (ClC-1 exon 7a [1]; 21 days) | formation of ribonuclear inclusions (CUG^exp RNA and MBNL1 foci) [3]
1 | control morpholino: control morpholino 5′-GAAGAGACAACGTCTGGCACGGACC-3′, the 5′-3′ invert of the 3′ splice site blocker (all phosphorodiamidate morpholino (PMO)) [reference compound] | not different from uninjected muscle | not different from uninjected muscle | no effect on ClC-1 splicing; also recorded: not different from untreated HSA^LR muscle |  |  |  |  |  |  |  |  |  |  | 
2 | antisense 1: morpholino 5′-CCAGGCACGGTCTGCAACAGAGAAG-3′ targeting the 3′ splice site of ClC-1 exon 7a (all phosphorodiamidate morpholino (PMO)) |  |  |  | marked reduction of myotonia; also recorded: markedly reduced or absent; also recorded: significantly reduced | markedly reduced or absent; also recorded: significantly reduced | repressed the inclusion of exon 7a | reduced inclusion of exon 7a | significant reduction of exon 7a inclusion; also recorded: suppressed to wild type (WT) levels | higher level of exon 7a skipping | more effective than targeting the 5′ splice site alone | remained partially suppressed | partial exclusion of exon 7a | increases the fraction of splice products encoding functional ClC-1 channels | did not affect the formation of nuclear foci; also recorded: no effect on the formation of ribonuclear inclusions
